Data taken from patent US7745423B2, “Calcium/sodium salt of inositol tripyrophosphate as an allosteric effector of hemoglobin” (NormOxys, Inc, priority 2004, dated 2010).
Where “and” joins values, the source holds several entries; their conditions need not be identical. Equal entries are not always repeated.

Assays:
human free Hb = human free Hb (Homo sapiens, UniProt P68871+P69905); experiment: P50 of human free Hb after incubation with compound (HEMOX analyzer); format: biochemical; details: compound solution 60 mM
Experimental: (§1) For the in vitro experiments, ITPP was dissolved in deionized water, pH was adjusted at pH 7 and, for incubation with whole blood, the osmolarity of the ITPP solutions was adjusted with glucose to 270-297 mOsM. Mixtures of hemoglobin and ITPP were measured with a HEMOX analyzer (PD Marketing, London) immediately after mixing. Red blood cells were incubated with ITPP for 1 hour at 37° C. Following incubation, the cells were washed 3 times with Bis-Tris-buffer (pH=7.0) and then used for P50 measurement.

murine free Hb = murine free Hb (Mus musculus, UniProt P01942+P02088); experiment: P50 of murine free Hb after incubation with compound (HEMOX analyzer); format: biochemical; details: for P50 (Torr) Hb + compound / P50 increase (%) + SD: murine free Hb, compound solution 60 mM
Experimental: as §1

human whole blood = experiment: P50 of human whole blood after incubation with compound; format: cell-based; details: for P50 (Torr) compound + whole blood / P50 increase (%) + SD: human whole blood
Experimental: as §1
(§2) ITPP-Ca4Na acts as a powerful effector of hemoglobin shifting the oxygen fixation curves to the right, with respect to the natural effector bisphosphoglycerate. […] In FIG. 6, hemoglobin is incubated (at concentrations up to 100 mM final) with ITPP Ca4Na, for 1 hour at 37° C. and measured by TCS-hemox analyzer for p50 shifts. In FIG. 7, whole human blood was incubated (at concentrations up to 120 mM final) with ITPP Ca4Na, for 1 hour 37° C. and measured by TCS-hemox analyzer for p50 shifts.

murine whole blood = experiment: P50 of murine whole blood after incubation with compound; format: cell-based
Experimental: as §1

porcine free Hb = porcine free Hb (Sus scrofa, UniProt P01965+P02067); experiment: P50 of porcine free Hb after incubation with compound (HEMOX analyzer); format: biochemical; details: compound solution 60 mM
Experimental: as §1

porcine whole blood = experiment: P50 of porcine whole blood after incubation with compound; format: cell-based; details: compound 60 mM
Experimental: as §1

[1] = system: hypoxic endothelial cells; experiment: ITPP-Ca/Na loaded red blood cells on hypoxic endothelial cells in vitro; format: cell-based
hemoglobin [2] = target: T1, hemoglobin (Homo sapiens, UniProt P68871+P69905); details: higher than DPG; cited from earlier work
[3] = system: VEGF mRNA in Lewis Lung carcinoma (LLC) tumors; experiment: VEGF mRNA (RT-PCR) in Lewis Lung carcinoma tumors of ITPP drinking mice; format: in vivo, C57BL/6 mice; details: LLC tumor-bearing mice, ITPP 20 g/L orally, day 9, versus controls
Experimental: ITPP, when administered orally, intravenously, or intraperitoneally, inhibits angiogenesis in growing tumors by enhancing the PO2 in the forming tumors. […] Thereafter, all animals received 1×10^6 Lewis Lung carcinoma (LLC) cells, injected in the dorsal cavity. At different time points, the VEGF mRNA were assayed by RT-PCR in the tumors growing in both groups of mice.
There was a difference in the level of mRNA of the VEGF gene in both groups. […] The RT-PCR agarose gel assay of VEGF mRNAs from tumor tissue taken from 2 mice each on day 15 after inoculation of LLC cells (track 1: controls, track 2: ITPP treated animals) and day 30 after inoculation (track 3: control animals, track 4: ITPP treated animals).
Quantification of the gel assays indicated a reduction by a factor of 10,000 of the amount of VEGF mRNAs detected in the tumors of animals having received ITPP, at day 9 and then, while differences remain between treated and untreated animals, they tend to decrease.

circulating RBCs = experiment: P50 of circulating RBCs after oral ITPP in drinking water; format: in vivo; details: drinking water 20 g/L (0.27 mM, pH ~7.0) ad libitum
Experimental: ITPP was dissolved in drinking water at a 20 g/L-concentration (0.27 mM, pH ˜7.0.) and offered for drinking ad libitum.

hemoglobin [4] = target: T1, hemoglobin; experiment: p50 shift of hemoglobin incubated with ITPP Ca4Na (TCS-hemox analyzer); format: biochemical; details: up to 100 mM final, 1 hour at 37° C.
Experimental: as §2

Sequence of human free Hb (P69905 2-142 limits assumed): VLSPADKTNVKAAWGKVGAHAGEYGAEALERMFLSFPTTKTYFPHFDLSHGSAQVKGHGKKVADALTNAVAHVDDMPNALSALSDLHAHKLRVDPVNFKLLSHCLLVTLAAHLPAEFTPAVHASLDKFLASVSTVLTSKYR
Sequence of human free Hb (P68871 2-147 limits assumed): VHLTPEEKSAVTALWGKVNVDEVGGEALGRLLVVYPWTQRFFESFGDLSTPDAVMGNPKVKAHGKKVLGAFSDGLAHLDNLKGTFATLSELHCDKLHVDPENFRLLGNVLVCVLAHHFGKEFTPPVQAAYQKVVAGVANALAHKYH
Sequence of murine free Hb (P01942 2-142 limits assumed): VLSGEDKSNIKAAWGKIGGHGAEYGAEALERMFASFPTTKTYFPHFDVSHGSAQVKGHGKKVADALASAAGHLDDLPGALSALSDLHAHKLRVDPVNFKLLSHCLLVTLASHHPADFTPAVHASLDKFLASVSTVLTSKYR
Sequence of murine free Hb (P02088 2-147 limits assumed): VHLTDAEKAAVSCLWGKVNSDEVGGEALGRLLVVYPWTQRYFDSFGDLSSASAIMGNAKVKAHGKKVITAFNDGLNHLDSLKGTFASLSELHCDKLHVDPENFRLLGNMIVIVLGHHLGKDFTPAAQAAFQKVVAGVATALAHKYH
T1 sequence (P69905 2-142 limits assumed): as the sequence (P69905 2-142 limits assumed) above
T1 sequence (P68871 2-147 limits assumed): as the sequence (P68871 2-147 limits assumed) above
Sequence of porcine free Hb (P01965 whole entry): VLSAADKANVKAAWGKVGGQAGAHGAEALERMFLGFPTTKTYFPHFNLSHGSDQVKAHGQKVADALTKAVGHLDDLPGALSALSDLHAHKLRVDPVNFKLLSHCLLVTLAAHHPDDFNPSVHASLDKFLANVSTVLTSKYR
Sequence of porcine free Hb (P02067 2-147 limits assumed): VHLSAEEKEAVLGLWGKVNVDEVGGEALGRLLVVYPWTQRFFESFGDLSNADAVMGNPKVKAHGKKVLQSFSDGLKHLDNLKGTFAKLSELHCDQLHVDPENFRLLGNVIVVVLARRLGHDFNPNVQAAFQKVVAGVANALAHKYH

Compound | P50 (Torr) Hb + compound (murine free Hb) [Torr] | P50 increase (%) + SD (murine free Hb) [%] | P50 (Torr) compound + whole blood (murine whole blood; compound 30 mM) [Torr] | P50 increase (%) + SD (murine whole blood; compound 30 mM) [%] | also measured
O=P1(O)OP(=O)(O)O[C@H]2[C@H](O1)[C@@H]1OP(=O)(O)OP(=O)(O)O[C@@H]1[C@H]1OP(=O)(O)OP(=O)(O)O[C@H]21.c1ccncc1.c1ccncc1.c1ccncc1.c1ccncc1.c1ccncc1.c1ccncc1 (racemic) [Compound 4, pyridinium salt of ITPP] | 50.0 | 100 ± 18 | 42.7 | 13 ± 2 | P50 (Torr) Hb + compound (human free Hb): 31.6 Torr; P50 increase (%) + SD (human free Hb): 107 ± 22%; P50 (Torr) compound + whole blood (human whole blood; compound 30 mM): 24.3 Torr; P50 increase (%) + SD (human whole blood; compound 30 mM): 10 ± 4%
O=P1([O-])OP(=O)([O-])O[C@H]2[C@H](O1)[C@@H]1OP(=O)([O-])OP(=O)([O-])O[C@@H]1[C@H]1OP(=O)([O-])OP(=O)([O-])O[C@H]21.[Na+].[Na+].[Na+].[Na+].[Na+].[Na+] (racemic) [Compound 5, myo-inositol tripyrophosphate-sodium salt] | 69.7 | 180 ± 25 |  |  | P50 (Torr) Hb + compound (human free Hb): 49.8 Torr; P50 increase (%) + SD (human free Hb): 225 ± 19%; P50 (Torr) Hb + compound (porcine free Hb): 68.1 Torr; P50 increase (%) + SD (porcine free Hb): 209 ± 39%; P50 (Torr) compound + whole blood (human whole blood; compound 60 mM): 30.8 Torr; P50 (Torr) compound + whole blood (murine whole blood; compound 4 mM): 47.4 Torr; P50 (Torr) compound + whole blood (porcine whole blood): 44.2 Torr
CN(C)C1CCCCC1.CN(C)C1CCCCC1.CN(C)C1CCCCC1.CN(C)C1CCCCC1.CN(C)C1CCCCC1.CN(C)C1CCCCC1.O=P1(O)OP(=O)(O)O[C@H]2[C@H](O1)[C@@H]1OP(=O)(O)OP(=O)(O)O[C@@H]1[C@H]1OP(=O)(O)OP(=O)(O)O[C@H]21 (racemic) [Compound 7, N,N-dimethylcyclohexyl ammonium salt of ITPP] | 45.1 | 81 ± 15 | 52.0 | 30 ± 3 | 
NC1CCCCCC1.NC1CCCCCC1.NC1CCCCCC1.NC1CCCCCC1.NC1CCCCCC1.NC1CCCCCC1.O=P1(O)OP(=O)(O)O[C@H]2[C@H](O1)[C@@H]1OP(=O)(O)OP(=O)(O)O[C@@H]1[C@H]1OP(=O)(O)OP(=O)(O)O[C@H]21 (racemic) [Compound 11, cycloheptyl ammonium salt of ITPP] | 43.8 | 71 ± 3 | 45.5 | 20 ± 2 | 
NC1CCCCCCC1.NC1CCCCCCC1.NC1CCCCCCC1.NC1CCCCCCC1.NC1CCCCCCC1.NC1CCCCCCC1.O=P1(O)OP(=O)(O)O[C@H]2[C@H](O1)[C@@H]1OP(=O)(O)OP(=O)(O)O[C@@H]1[C@H]1OP(=O)(O)OP(=O)(O)O[C@H]21 (racemic) [Compound 12, cyclooctyl ammonium salt of ITPP] | 30.6 | 23 ± 5 | 41.3 | 9 ± 1 | 
C1CNCCN1.C1CNCCN1.C1CNCCN1.O=P1(O)OP(=O)(O)O[C@H]2[C@H](O1)[C@@H]1OP(=O)(O)OP(=O)(O)O[C@@H]1[C@H]1OP(=O)(O)OP(=O)(O)O[C@H]21 (racemic) [Compound 14, tripiperazinium salt of ITPP] | 82.9 | 254 ± 49 | 41.9 | 7 ± 1 | 
O=P1([O-])OP(=O)([O-])O[C@H]2[C@H](O1)[C@@H]1OP(=O)([O-])OP(=O)([O-])O[C@@H]1[C@H]1OP(=O)([O-])OP(=O)([O-])O[C@H]21.[Ca+2].[Ca+2].[Ca+2] (racemic) [Compound 15, myo-inositol tripyrophosphate-calcium salt] | 61.9 | 130 ± 30 | 42.3 | 8 ± 2 | P50 (Torr) Hb + compound (human free Hb): 33.1 Torr; P50 increase (%) + SD (human free Hb): 170% and 170 ± 32%; P50 (Torr) compound + whole blood (human whole blood; compound 30 mM): 31.0 Torr; P50 increase (%) + SD (human whole blood; compound 30 mM): 25% and 25 ± 3%; P50 (Torr) compound + whole blood (murine whole blood; compound 60 mM): 55.3 Torr
O=P1([O-])OP(=O)([O-])O[C@H]2[C@H](O1)[C@@H]1OP(=O)([O-])OP(=O)([O-])O[C@@H]1[C@H]1OP(=O)([O-])OP(=O)([O-])O[C@H]21.[Ca+2].[Na+].[Na+].[Na+].[Na+] (racemic) [ITPP-Ca/Na, mixed calcium/sodium salt of inositol-tripyrophosphate] |  |  |  |  | effect on HIF-1 induction, VEGF and angiogenesis (FIG. 1) [1]: suppression of HIF-1 induction, VEGF and angiogenesis
O=P(O)(O)O[C@H]1[C@H](OP(=O)(O)O)[C@@H](OP(=O)(O)O)[C@H](OP(=O)(O)O)[C@@H](OP(=O)(O)O)[C@H]1OP(=O)(O)O [IHP, inositol hexaphosphate] |  |  |  |  | affinity to hemoglobin relative to DPG (hemoglobin [2]): 1000 fold
O=P1(O)OC2C3OP(=O)(O)OP(=O)(O)OC3C3OP(=O)(O)OP(=O)(O)OC3C2OP(=O)(O)O1 (stereo not drawn) [ITPP, inositol-tripyrophosphate] |  |  |  |  | P50 shift to higher PO2 (murine free Hb; murine hemoglobin, maximum observed): up to 250%; P50 shift to higher PO2 (murine whole blood; maximum observed): up to 40%; reduction factor of the amount of VEGF mRNAs detected in the tumors [3]: 10,000; shift of the P50 value of circulating RBCs (circulating RBCs): significant shift
O=P1([O-])OC2C3OP(=O)([O-])OP(=O)([O-])OC3C3OP(=O)([O-])OP(=O)([O-])OC3C2OP(=O)([O-])O1.[Ca+2].[Na+].[Na+].[Na+].[Na+] (stereo not drawn) [ITPP-Ca4Na, monocalcium tetrasodium myo-inositol 1,6:2,3:4,5 trispyrophosphate] |  |  |  |  | p50 values of whole human blood (FIG. 7) (human whole blood; up to 120 mM final, 1 hour 37° C.): increase with concentration; p50 values of hemoglobin (FIG. 6) (hemoglobin [4]): increase with concentration
piperazinium salt of ITPP [Compound 13] | 67.7 | 189 ± 43 | 41.7 | 10 ± 2 | 
